Measurements published in PubChem BioAssay (NCI).
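Cultured in 96-well plates, cells were exposed to test compound for 48 hours across five concentrations. GI50 = concentration required for 50% inhibition of growth. Definition used: TGI = concentration required for complete inhibition of growth.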

Tests used:
Experiment in all cases: NCI-60 cell line screen, 48 h
OVCAR-4 ovarian = tested on: OVCAR-4 ovarian
OVCAR-8 ovarian = tested on: OVCAR-8 ovarian
NCI-H23 lung = tested on: NCI-H23 lung
A498 renal = tested on: A498 renal
TK-10 renal = tested on: TK-10 renal
HCT-116 colon = tested on: HCT-116 colon
OVCAR-3 ovarian = tested on: OVCAR-3 ovarian
SF-539 CNS = tested on: SF-539 CNS
CCRF-CEM leukemia = tested on: CCRF-CEM leukemia
HCT-15 colon = tested on: HCT-15 colon
ACHN renal = tested on: ACHN renal
PC-3 prostate = tested on: PC-3 prostate
MDA-MB-435 = tested on: MDA-MB-435
MCF7 breast = tested on: MCF7 breast
NCI/ADR-RES ovarian = tested on: NCI/ADR-RES ovarian
MOLT-4 leukemia = tested on: MOLT-4 leukemia
IGROV1 ovarian = tested on: IGROV1 ovarian
SK-MEL-28 melanoma = tested on: SK-MEL-28 melanoma
UACC-257 melanoma = tested on: UACC-257 melanoma
OVCAR-5 ovarian = tested on: OVCAR-5 ovarian
RXF 393 renal = tested on: RXF 393 renal
SNB-75 CNS = tested on: SNB-75 CNS
SN12C renal = tested on: SN12C renal
LOX IMVI melanoma = tested on: LOX IMVI melanoma
SK-MEL-2 melanoma = tested on: SK-MEL-2 melanoma
HL-60(TB) leukemia = tested on: HL-60(TB) leukemia
SNB-19 CNS = tested on: SNB-19 CNS
HOP-62 NSCLC = tested on: HOP-62 NSCLC
HS 578T breast = tested on: HS 578T breast
HCC-2998 colon = tested on: HCC-2998 colon
SF-295 CNS = tested on: SF-295 CNS
MDA-MB-231 breast = tested on: MDA-MB-231 breast
NCI-H226 lung = tested on: NCI-H226 lung
A549 NSCLC = tested on: A549 NSCLC
MALME-3M melanoma = tested on: MALME-3M melanoma
UACC-62 melanoma = tested on: UACC-62 melanoma
KM12 colon = tested on: KM12 colon
SF-268 CNS = tested on: SF-268 CNS
NCI-H460 lung = tested on: NCI-H460 lung
SW-620 colon = tested on: SW-620 colon
MDA-MB-468 breast = tested on: MDA-MB-468 breast
SR leukemia = tested on: SR leukemia
EKVX NSCLC = tested on: EKVX NSCLC
HT29 colon = tested on: HT29 colon
NCI-H522 lung = tested on: NCI-H522 lung
CAKI-1 renal = tested on: CAKI-1 renal
M14 melanoma = tested on: M14 melanoma
RPMI-8226 leukemia = tested on: RPMI-8226 leukemia
HOP-92 NSCLC = tested on: HOP-92 NSCLC
SK-OV-3 ovarian = tested on: SK-OV-3 ovarian
SK-MEL-5 melanoma = tested on: SK-MEL-5 melanoma
DU-145 prostate = tested on: DU-145 prostate
U251 CNS = tested on: U251 CNS
UO-31 renal = tested on: UO-31 renal
BT-549 breast = tested on: BT-549 breast
T-47D breast = tested on: T-47D breast
COLO 205 colon = tested on: COLO 205 colon
K-562 leukemia = tested on: K-562 leukemia
786-0 renal = tested on: 786-0 renal

With `COc1ccc(-c2nc(S(=O)(=O)c3ccccc3)c(S(C)(=O)=O)o2)cc1` the GI50 (OVCAR-4 ovarian) was 3.44 µM, the TGI (OVCAR-4 ovarian) was 15.4 µM and the GI50 (OVCAR-8 ovarian) was 13.6 µM. It also gave a TGI (OVCAR-8 ovarian) of 32.1 µM, a GI50 (NCI-H23 lung) of 12 µM and a TGI (NCI-H23 lung) of 27.2 µM. For the same compound, the GI50 (A498 renal) was 15.5 µM, the TGI (A498 renal) was 29 µM and the GI50 (TK-10 renal) was 7.5 µM. The TGI (TK-10 renal) was 21 µM, the GI50 (HCT-116 colon) was 1.99 µM and the TGI (HCT-116 colon) was 4.58 µM. The GI50 (OVCAR-3 ovarian) was 1.74 µM, the TGI (OVCAR-3 ovarian) was 3.33 µM and the GI50 (SF-539 CNS) was 3.93 µM. The TGI (SF-539 CNS) was 14.6 µM, the GI50 (CCRF-CEM leukemia) was 2.07 µM and the TGI (CCRF-CEM leukemia) was 6.22 µM. For the same compound, the GI50 (HCT-15 colon) was 2.04 µM, the TGI (HCT-15 colon) was 4.62 µM and the GI50 (ACHN renal) was 1.7 µM. It also gave a TGI (ACHN renal) of 3.13 µM, a GI50 (PC-3 prostate) of 14.1 µM and a TGI (PC-3 prostate) of 30 µM. The GI50 (MDA-MB-435) was 8.96 µM, the TGI (MDA-MB-435) was 21.8 µM and the GI50 (MCF7 breast) was 2.46 µM. For the same compound, the TGI (MCF7 breast) was 8.25 µM, the GI50 (NCI/ADR-RES ovarian) was 17 µM and the TGI (NCI/ADR-RES ovarian) was 48 µM. The GI50 (MOLT-4 leukemia) was 3.39 µM, the TGI (MOLT-4 leukemia) was 13.2 µM and the GI50 (IGROV1 ovarian) was 13.1 µM. For the same compound, the TGI (IGROV1 ovarian) was 27.2 µM, the GI50 (SK-MEL-28 melanoma) was 12.5 µM and the TGI (SK-MEL-28 melanoma) was 25.2 µM. The GI50 (UACC-257 melanoma) was 13 µM, the TGI (UACC-257 melanoma) was 28 µM and the GI50 (OVCAR-5 ovarian) was 14.4 µM. It also gave a TGI (OVCAR-5 ovarian) of 27.9 µM, a GI50 (RXF 393 renal) of 2.07 µM and a TGI (RXF 393 renal) of 4.09 µM. The GI50 (SNB-75 CNS) was 11.3 µM, the TGI (SNB-75 CNS) was 23.7 µM and the GI50 (SN12C renal) was 11.4 µM. It also gave a TGI (SN12C renal) of 23.5 µM, a GI50 (LOX IMVI melanoma) of 1.54 µM and a TGI (LOX IMVI melanoma) of 2.92 µM. For the same compound, the GI50 (SK-MEL-2 melanoma) was 14.2 µM, the TGI (SK-MEL-2 melanoma) was 28 µM and the GI50 (HL-60(TB) leukemia) was 2.38 µM. The TGI (HL-60(TB) leukemia) was 20.9 µM, the GI50 (SNB-19 CNS) was 16.5 µM and the TGI (SNB-19 CNS) was 31.8 µM. It also gave a GI50 (HOP-62 NSCLC) of 18.2 µM, a TGI (HOP-62 NSCLC) of 35.2 µM and a GI50 (HS 578T breast) of 12.8 µM. For the same compound, the TGI (HS 578T breast) was 48.4 µM, the GI50 (HCC-2998 colon) was 15 µM and the TGI (HCC-2998 colon) was 29 µM. For the same compound, the GI50 (SF-295 CNS) was 15.7 µM, the TGI (SF-295 CNS) was 29.6 µM and the GI50 (MDA-MB-231 breast) was 3.52 µM. The TGI (MDA-MB-231 breast) was 12.2 µM, the GI50 (NCI-H226 lung) was 18.2 µM and the TGI (NCI-H226 lung) was 40.9 µM. It also gave a GI50 (A549 NSCLC) of 19.1 µM, a TGI (A549 NSCLC) of 42.1 µM and a GI50 (MALME-3M melanoma) of 1.67 µM. The TGI (MALME-3M melanoma) was 3.1 µM, the GI50 (UACC-62 melanoma) was 11.2 µM and the TGI (UACC-62 melanoma) was 23.2 µM. For the same compound, the GI50 (KM12 colon) was 17.6 µM, the TGI (KM12 colon) was 35.7 µM and the GI50 (SF-268 CNS) was 14.4 µM. The TGI (SF-268 CNS) was 33.9 µM, the GI50 (NCI-H460 lung) was 13.9 µM and the TGI (NCI-H460 lung) was 29.7 µM. For the same compound, the GI50 (SW-620 colon) was 1.67 µM, the TGI (SW-620 colon) was 3.39 µM and the GI50 (MDA-MB-468 breast) was 2.24 µM. The TGI (MDA-MB-468 breast) was 4.41 µM, the GI50 (SR leukemia) was 2.66 µM and the TGI (SR leukemia) was 25.6 µM. For the same compound, the GI50 (EKVX NSCLC) was 12.2 µM, the TGI (EKVX NSCLC) was 26.6 µM and the GI50 (HT29 colon) was 3.15 µM. It also gave a TGI (HT29 colon) of 9.31 µM, a GI50 (NCI-H522 lung) of 1.65 µM and a TGI (NCI-H522 lung) of 3.32 µM. For the same compound, the GI50 (CAKI-1 renal) was 2.59 µM, the TGI (CAKI-1 renal) was 10.9 µM and the GI50 (M14 melanoma) was 3.26 µM. The TGI (M14 melanoma) was 14.3 µM, the GI50 (RPMI-8226 leukemia) was 3.97 µM and the TGI (RPMI-8226 leukemia) was > 100 µM. For the same compound, the GI50 (HOP-92 NSCLC) was 7.29 µM, the TGI (HOP-92 NSCLC) was 20.8 µM and the GI50 (SK-OV-3 ovarian) was 21.7 µM. The TGI (SK-OV-3 ovarian) was 44.9 µM, the GI50 (SK-MEL-5 melanoma) was 15.2 µM and the TGI (SK-MEL-5 melanoma) was 29.1 µM. The GI50 (DU-145 prostate) was 6.26 µM, the TGI (DU-145 prostate) was 20.4 µM and the GI50 (U251 CNS) was 17.7 µM. The TGI (U251 CNS) was 34.3 µM, the GI50 (UO-31 renal) was 5.43 µM and the TGI (UO-31 renal) was 18.3 µM. The GI50 (BT-549 breast) was 10.1 µM, the TGI (BT-549 breast) was 22.6 µM and the GI50 (T-47D breast) was 2.16 µM. It also gave a TGI (T-47D breast) of 5.03 µM, a GI50 (COLO 205 colon) of 2.22 µM and a TGI (COLO 205 colon) of 4.9 µM. For the same compound, the GI50 (K-562 leukemia) was 2.77 µM, the TGI (K-562 leukemia) was > 100 µM and the GI50 (786-0 renal) was 2.08 µM. The TGI (786-0 renal) was 4.98 µM.
